According to patent US8735421B2, “Imidazoquinolinyl sulfonamides” (3M Innovative Properties Company, priority 2003, dated 2014):

Q: Which melting point does the source give for CCOCc1nc2c(N)nc3cccnc3c2n1CCCCS(=O)(=O)N(C)C [Example 29, N,N-Dimethyl 4-(4-Amino-2-ethoxymethyl-1H-imidazo[4,5-c][1,5]naphthyridin-1-yl)butane-1-sulfonamide] here?
A: 148 to 150 °C

Q: With CCCc1nc2c(N)nc3cccnc3c2n1CCCCS(=O)(=O)N(C)C [Example 30, N,N-Dimethyl 4-(4-Amino-2-propyl-1H-imidazo[4,5-c][1,5]naphthyridin-1-yl)butane-1-sulfonamide] as the molecule, how does the melting point read?
A: 162 to 163 °C

Q: Which melting point does the source give for CCCc1nc2c(N)nc(C)c(C)c2n1CCCCS(N)(=O)=O [Example 31, 4-(4-Amino-6,7-dimethyl-2-propyl-1H-imidazo[4,5-c]pyridin-1-yl)butane-1-sulfonamide] here?
A: 167 to 169 °C

Q: Which melting point does the source give for CCOCc1nc2c(N)nc3cccnc3c2n1CCCCS(=O)(=O)NC [Example 32, N-Methyl 4-(4-Amino-2-ethoxymethyl-1H-imidazo[4,5-c][1,5]naphthyridin-1-yl)butane-1-sulfonamide] here?
A: 148 to 150 °C

Q: With CCCc1nc2c(N)nc3cccnc3c2n1CCCCS(=O)(=O)NC [Example 33, N-Methyl 4-(4-Amino-2-propyl-1H-imidazo[4,5-c][1,5]naphthyridin-1-yl)butane-1-sulfonamide] as the molecule, how does the melting point read?
A: 174 to 175 °C

Q: With CCOCc1nc2c(N)nc(C)c(C)c2n1CCCCS(=O)(=O)NC [Example 34, N-Methyl 4-(4-Amino-6,7-dimethyl-2-ethoxymethyl-1H-imidazo[4,5-c]pyridin-1-yl) butane-1-sulfonamide] as the molecule, how does the melting point read?
A: 194.5 to 196 °C

Q: With CCOCc1nc2c(N)nc(C)c(C)c2n1CCCCS(N)(=O)=O [Example 35, 4-(4-Amino-2-ethoxymethyl-6,7-dimethyl-1H-imidazo[4,5-c]pyridin-1-yl)butane-1-sulfonamide] as the molecule, how does the melting point read?
A: 200 to 201.5 °C

Q: With CCOCc1nc2c(N)nc3ccccc3c2n1CC(C)(C)CS(=O)(=O)NC [Example 36, 3-[4-Amino-2-(ethoxymethyl)-1H-imidazo[4,5-c]quinolin-1-yl]-N,2,2-trimethylpropane-1-sulfonamide] as the molecule, how does the melting point read?
A: 161 to 163 °C

Q: For CCOCc1nc2c(N)nc3ccccc3c2n1CCCCS(=O)(=O)NC(C)C [Example 37, 4-[4-Amino-2-(ethoxymethyl)-1H-imidazo[4,5-c]quinolin-1-yl]-N-isopropylbutane-1-sulfonamide], which melting point is on record?
A: 146 to 147 °C

Q: Which melting point does the source give for CCOCc1nc2c(N)nc3c(c2n1CCCCCS(N)(=O)=O)CCCC3 [Example 38, 5-[4-amino-2-(ethoxymethyl)-6,7,8,9-tetrahydro-1H-imidazo[4,5-c]quinolin-1-yl]pentane-1-sulfonamide] here?
A: 203 to 205 °C

Q: For CCc1nc2c(N)nc3c(c2n1CCCCS(=O)(=O)NC)CCCC3 [Example 39, N-Methyl 4-(4-amino-2-ethyl-6,7,8,9-tetrahydro-1H-imidazo[4,5-c]quinolin-1-yl)butane-1-sulfonamide], which melting point is on record?
A: 166 to 170 °C

Q: For CCOCc1nc2c(N)nc3ccccc3c2n1CCCCS(=O)(=O)Nc1ccccn1 [Example 40, 4-[4-Amino-2-(ethoxymethyl)-1H-imidazo[4,5-c]quinolin-1-yl]-N-(pyridin-2-yl)butane-1-sulfonamide], which melting point is on record?
A: 197 to 200 °C

Q: Which melting point does the source give for CCOCc1nc2c(N)nc3ccccc3c2n1CC(C)(C)CS(=O)(=O)NCc1ccc(OC)cc1 [Example 41, 3-[4-Amino-2-(ethoxymethyl)-1H-imidazo[4,5-c]quinolin-1-yl]-N-(4-methoxybenzyl)-2,2-dimethylpropane-1-sulfonamide] here?
A: 203 to 205 °C

Q: Which melting point does the source give for CCOCc1nc2c(N)nc3ccccc3c2n1CC(C)(C)CS(N)(=O)=O [Example 42, 3-[4-Amino-2-(ethoxymethyl)-1H-imidazo[4,5-c]quinolin-1-yl]-2,2-dimethylpropane-1-sulfonamide] here?
A: 229 to 231 °C

Q: For Cc1nc2c(N)nc3c(c2n1CC(C)(C)CS(N)(=O)=O)CCCC3 [Example 43, 3-(4-Amino-2-methyl-6,7,8,9-tetrahydro-1H-imidazo[4,5-c]quinolin-1-yl)-2,2-dimethylpropane-1-sulfonamide], which melting point is on record?
A: 242 to 243 °C (dec.)
